According to patent US7456154B2 (priority 2001, dated 2008):

Experiments:
EAMG rats [1] = experiment: Electromyography: CMAP ratio under repetitive 3 Hz nerve stimulation in EAMG rats; assay type: in vivo, rat; conditions: for Effect on CMAP decline / muscle function in EAMG rats: comparable amounts, Table 1; for CMAP ratio (5th vs. 1st amplitude): average ± SEM; for Effect of oral administration on CMAP decline: oral gavage, 1000 μg/kg pyridostigmine, CMAP 1, 5, 24 h
EAMG rats [2] = experiment: Repeated daily treatment of EAMG rats (5 days and 1 month): survival, body weight, status; assay type: in vivo, rat
Description: As shown in Example 5, unlike anti-cholinesterases, rEN101 afforded long-term maintenance of stable CMAP. This further enabled the inventors to test whether the cholinergic imbalance contributes to the physiological deterioration that is characteristic of EAMG. Rats were first treated with rEN101 once a day for 5 days, CMAPs being determined prior to each treatment. Both the efficacy of rEN101 in retrieving normal CMAP and its capacity to reduce the inter-animal variability in CMAP values reached similar levels to those of pyridostigmine (FIGS. 11A and 11B). However, the onset of response to pyridostigmine was more rapid (Table 1), while that observed with rEN101 was longer-lasting. Daily oral or i.v administration of rEN101 stabilized CMAPs over the entire course of treatment (FIG. 11B). In contrast, the effect of pyridostigmine wore off within several hours, causing pronounced fluctuations in muscle status (Table 1 and FIG. 11). Among the animals treated daily with pyridostigmine, 5 out of 6 died within the 5 day experimental course. In contrast, 6 out of 8 animals treated once-a-day with rEN101 via o.g. survived the full 5 day period. This conspicuous difference might reflect the susceptibility of EAMG rats to repeated anesthesia and CMAP measurements. In order to avoid these additional stresses and evaluate the effect of the antisense treatment on EAMG pathophysiology, the inventors subjected groups of moderately sick animals to 1 month of daily oral treatment with minimal interference. […] One way repeated measures ANOVA yielded P<0.05 for all other measures (AS vs. other treatments at 4 weeks). The effect of rEN101 on clinical symptoms was also corroborated by body weight changes. Rats treated with saline and Mestinon treated groups lost 13.5 and 11 g/animal, respectively, whereas animals treated with rEN101 gained, on average, 13 g during the treatment period. Thus, daily rEN101 administration promoted long-term change in the course of EAMG in rats with moderate to severe symptoms, under the same conditions in which untreated or pyridostigmine-treated animals deteriorated.

AChE-R mRNA = experiment: In situ hybridization of AChE-R mRNA in rat muscle; assay type: in vivo; conditions: healthy and EAMG rats
Protocol: In situ hybridization: Tissues were fixed in 4% paraformaldehyde and cut into 7 μm paraffin embedded sections. Spinal cord sections were deparaffinized, rehydrated using serial ethanol dilutions and permeabilized with proteinase K (10 μg/ml at room temp.). Slides were exposed to 5′ biotinylated, fully 2′-oxymethylated AChE-R or AChE-S-specific 50-mer cRNA probes complementary to human ACHE pseudo-intron 4 or exon 6, respectively [Grisaru et al. (2001) id ibid.]. Hybridization was performed overnight at 52° C. in hybridization mixture containing 10 μg/ml probe, 50 μg/ml yeast tRNA, 50 μg/ml heparin and 50% formamide in 375 mM Na chloride, 37.5 mM Na citrate, pH 4.5. For monkey sections, the probe was constructed according to the human AChE-R sequence; for rat sections, according to the mouse sequence. Slides were washed to remove non-hybridized probe, blocked with 1% skim milk containing 0.01% Tween-20 and 2 mM levamisole, an alkaline phosphatase inhibitor used to suppress non-specific staining and incubate with streptavidin-alkaline phosphatase (Amersham Pharmacia). Fast Red™ substrate (Roche Diagnostics) was used for detection. DAPI staining (Sigma Chemical Co., St. Louis, Mo., USA) served to visualize nuclei. Microscope images were analyzed with Image Pro Plus 4.0 (Media Cybernetics) software. […]

[3] = intravenous, EAMG rats, 0 h, 50 μg/Kg
[4] = intravenous, EAMG rats, 1 h, 50 μg/Kg
[5] = intravenous, EAMG rats, 5 h, 50 μg/Kg
[6] = intravenous, EAMG rats, 24 h, 50 μg/Kg
[7] = oral, EAMG rats, 0 h, 50 μg/Kg oligonucleotide, 1000 μg/Kg pyridostigmine
[8] = oral, EAMG rats, 1 h, 50 μg/Kg oligonucleotide, 1000 μg/Kg pyridostigmine
[9] = oral, EAMG rats, 5 h, 50 μg/Kg oligonucleotide, 1000 μg/Kg pyridostigmine
[10] = oral, EAMG rats, 24 h, 50 μg/Kg oligonucleotide, 1000 μg/Kg pyridostigmine

With 5′-GGGAGAGGAGGAGGAAGAGG-3′ [rEN102] the “Effect on CMAP decline / muscle function in EAMG rats” value (EAMG rats [1]) was “induced similar rectification of CMAP decline”, the “CMAP ratio (5th vs. 1st amplitude)” value (EAMG rats [1]; [3]) was 0.85 ± 0.06 and the “CMAP ratio (5th vs. 1st amplitude)” value (EAMG rats [1]; [4]) was 1.04 ± 0.01. For the same compound, the “CMAP ratio (5th vs. 1st amplitude)” value (EAMG rats [1]; [5]) was 0.98 ± 0.03, the “CMAP ratio (5th vs. 1st amplitude)” value (EAMG rats [1]; [6]) was 1.00 ± 0.01 and the “Effect of oral administration on CMAP decline” value (“Effect of oral administration” for short) (EAMG rats [1]; 50 μg/Kg oligonucleotide) was “active in reversing CMAP decline”. The “CMAP ratio (5th vs. 1st amplitude)” value (EAMG rats [1]; [7]) was 0.82 ± 0.02, the “CMAP ratio (5th vs. 1st amplitude)” value (EAMG rats [1]; [8]) was 0.86 ± 0.04 and the “CMAP ratio (5th vs. 1st amplitude)” value (EAMG rats [1]; [9]) was 0.96 ± 0.02. The “CMAP ratio (5th vs. 1st amplitude)” value (EAMG rats [1]; [10]) was 0.95 ± 0.03.

With `CN(C)C(=O)Oc1ccc[n+](C)c1` [pyridostigmine, reference compound] the “Effect of oral administration” value (EAMG rats [1]; 50 μg/Kg oligonucleotide) was “restored CMAP for up to several hours”, the “CMAP ratio (5th vs. 1st amplitude)” value (EAMG rats [1]; [7]) was 0.90 ± 0.01 and the “CMAP ratio (5th vs. 1st amplitude)” value (EAMG rats [1]; [8]) was 0.98 ± 0.01. The “CMAP ratio (5th vs. 1st amplitude)” value (EAMG rats [1]; [9]) was 0.96 ± 0.02, the “CMAP ratio (5th vs. 1st amplitude)” value (EAMG rats [1]; [10]) was 0.87 ± 0.02 and the “CMAP ratio 24 h following single oral administration” value (EAMG rats [1]; single oral dose, rEN101 50 μg/kg, pyridostigmine 1000 μg/kg) was “returned to the declining baseline”. The “Animals that died within the 5 day experimental course” value (EAMG rats [2]; EAMG rats treated daily, with repeated anesthesia and CMAP measurements) was 5 out of 6 and the “Body weight lost during the treatment period” value (EAMG rats [2]; EAMG rats, 1 month daily oral treatment) was 11 g/animal.

In the case of `CN(C)C(=O)Oc1cccc([N+](C)(C)C)c1` [neostigmine bromide, reference compound], the CMAP after treatment (EAMG rats [1]; 75 μg/kg i.p., EAMG rats) is reported as 107.4 % of the first evoked potential, the “Duration of effect on CMAP” value (EAMG rats [1]; 75 μg/kg i.p., EAMG rats) is reported as 2 h and the “Onset of effect on CMAP after injection” value (EAMG rats [1]; 75 μg/kg i.p., EAMG rats) is reported as 15 min. The “CMAP after treatment relative to untreated level” value (EAMG rats [1]; 75 μg/kg i.p., EAMG rats, untreated 87.6% of first evoked potential) was “over 120 % of this level”.

“5′-GGAGAAGGAGGAGGAGAGGG-3′ (chemistry not given here) [r-invEN102, reference compound]” was tested, and the “Effect on CMAP decline / muscle function in EAMG rats” value (EAMG rats [1]) was “did not improve muscle function”, the “CMAP ratio (5th vs. 1st amplitude)” value (EAMG rats [1]; [3]) was 0.89 ± 0.02 and the “CMAP ratio (5th vs. 1st amplitude)” value (EAMG rats [1]; [4]) was 0.89 ± 0.03. For the same compound, the “CMAP ratio (5th vs. 1st amplitude)” value (EAMG rats [1]; [5]) was 0.89 ± 0.02, the “CMAP ratio (5th vs. 1st amplitude)” value (EAMG rats [1]; [6]) was 0.90 ± 0.02 and the “Effect of oral administration” value (EAMG rats [1]; 50 μg/Kg oligonucleotide) was “had no significant effect”. For the same compound, the “CMAP ratio (5th vs. 1st amplitude)” value (EAMG rats [1]; [7]) was 0.78 ± 0.06, the “CMAP ratio (5th vs. 1st amplitude)” value (EAMG rats [1]; [8]) was 0.86 ± 0.05 and the “CMAP ratio (5th vs. 1st amplitude)” value (EAMG rats [1]; [9]) was 0.86 ± 0.05. For the same compound, the “CMAP ratio (5th vs. 1st amplitude)” value (EAMG rats [1]; [10]) was 0.81 ± 0.08 and the “AChE-R mRNA labeling in muscle” value (AChE-R mRNA) was “unaffected”.
